According to PubChem BioAssay (NCI):
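Cultured in 96-well plates, cells were exposed to test compound for 48 hours across five concentrations. GI50 = concentration required for 50% inhibition of growth. TGI marks complete inhibition of growth.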

What was measured:
Experiment in all cases: growth of human tumour cells (NCI), 48 h
786-0 renal = tested on: 786-0 renal
A498 renal = tested on: A498 renal
A549 NSCLC = tested on: A549 NSCLC
ACHN renal = tested on: ACHN renal
BT-549 breast = tested on: BT-549 breast
CAKI-1 renal = tested on: CAKI-1 renal
CCRF-CEM leukemia = tested on: CCRF-CEM leukemia
COLO 205 colon = tested on: COLO 205 colon
DU-145 prostate = tested on: DU-145 prostate
HCC-2998 colon = tested on: HCC-2998 colon
HCT-116 colon = tested on: HCT-116 colon
HCT-15 colon = tested on: HCT-15 colon
HL-60(TB) leukemia = tested on: HL-60(TB) leukemia
HOP-62 NSCLC = tested on: HOP-62 NSCLC
HOP-92 NSCLC = tested on: HOP-92 NSCLC
HS 578T breast = tested on: HS 578T breast
HT29 colon = tested on: HT29 colon
IGROV1 ovarian = tested on: IGROV1 ovarian
K-562 leukemia = tested on: K-562 leukemia
KM12 colon = tested on: KM12 colon
LOX IMVI melanoma = tested on: LOX IMVI melanoma
M14 melanoma = tested on: M14 melanoma
MALME-3M melanoma = tested on: MALME-3M melanoma
MCF7 breast = tested on: MCF7 breast
MDA-MB-231 breast = tested on: MDA-MB-231 breast
MDA-MB-435 = tested on: MDA-MB-435
MOLT-4 leukemia = tested on: MOLT-4 leukemia
NCI-H226 lung = tested on: NCI-H226 lung
NCI-H23 lung = tested on: NCI-H23 lung
NCI-H460 lung = tested on: NCI-H460 lung
NCI-H522 lung = tested on: NCI-H522 lung
NCI/ADR-RES ovarian = tested on: NCI/ADR-RES ovarian
OVCAR-3 ovarian = tested on: OVCAR-3 ovarian
OVCAR-4 ovarian = tested on: OVCAR-4 ovarian
OVCAR-5 ovarian = tested on: OVCAR-5 ovarian
OVCAR-8 ovarian = tested on: OVCAR-8 ovarian
PC-3 prostate = tested on: PC-3 prostate
RPMI-8226 leukemia = tested on: RPMI-8226 leukemia
RXF 393 renal = tested on: RXF 393 renal
SF-268 CNS = tested on: SF-268 CNS
SF-295 CNS = tested on: SF-295 CNS
SF-539 CNS = tested on: SF-539 CNS
SK-MEL-2 melanoma = tested on: SK-MEL-2 melanoma
SK-MEL-28 melanoma = tested on: SK-MEL-28 melanoma
SK-MEL-5 melanoma = tested on: SK-MEL-5 melanoma
SK-OV-3 ovarian = tested on: SK-OV-3 ovarian
SN12C renal = tested on: SN12C renal
SNB-19 CNS = tested on: SNB-19 CNS
SNB-75 CNS = tested on: SNB-75 CNS
SR leukemia = tested on: SR leukemia
SW-620 colon = tested on: SW-620 colon
T-47D breast = tested on: T-47D breast
TK-10 renal = tested on: TK-10 renal
U251 CNS = tested on: U251 CNS
UACC-257 melanoma = tested on: UACC-257 melanoma
UACC-62 melanoma = tested on: UACC-62 melanoma
UO-31 renal = tested on: UO-31 renal

## COc1ccc([I+]c2ccccc2)cc1
786-0 renal
  GI50: 16.4 µM
  TGI: > 100 µM
A498 renal
  GI50: 1.9 µM
  TGI: > 93.2 µM
A549 NSCLC
  GI50: 4.38 µM
  TGI: > 100 µM
ACHN renal
  GI50: 42.7 µM
  TGI: > 100 µM
BT-549 breast
  GI50: 4.12 µM
  TGI: > 78.8 µM
CAKI-1 renal
  GI50: 12.5 µM
  TGI: > 100 µM
CCRF-CEM leukemia
  GI50: 2.86 µM
  TGI: > 100 µM
COLO 205 colon
  GI50: 5.95 µM
  TGI: > 100 µM
DU-145 prostate
  GI50: 23 µM
  TGI: > 100 µM
HCC-2998 colon
  GI50: 10 µM
  TGI: > 100 µM
HCT-116 colon
  GI50: 0.735 µM
  TGI: > 100 µM
HCT-15 colon
  GI50: 42.1 µM
  TGI: > 100 µM
HL-60(TB) leukemia
  GI50: 5.22 µM
  TGI: > 95.1 µM
HOP-62 NSCLC
  GI50: 2.91 µM
  TGI: 79.2 µM
HOP-92 NSCLC
  GI50: 6.55 µM
  TGI: 81.9 µM
HS 578T breast
  GI50: 15.9 µM
  TGI: > 100 µM
HT29 colon
  GI50: 4.22 µM
  TGI: > 100 µM
IGROV1 ovarian
  GI50: 8.99 µM
  TGI: > 100 µM
K-562 leukemia
  GI50: 1.45 µM
  TGI: > 100 µM
KM12 colon
  GI50: 4.27 µM
  TGI: > 100 µM
LOX IMVI melanoma
  GI50: 3.47 µM
  TGI: > 100 µM
M14 melanoma
  GI50: 9.09 µM
  TGI: > 100 µM
MALME-3M melanoma
  GI50: 7.8 µM
  TGI: > 100 µM
MCF7 breast
  GI50: 5.69 µM
  TGI: > 100 µM
MDA-MB-231 breast
  GI50: > 78.2 µM
  TGI: > 100 µM
MDA-MB-435
  GI50: 10.1 µM
  TGI: > 100 µM
MOLT-4 leukemia
  GI50: 7.59 µM
  TGI: > 100 µM
NCI-H226 lung
  GI50: 12.2 µM
  TGI: > 100 µM
NCI-H23 lung
  GI50: 3.75 µM
  TGI: > 100 µM
NCI-H460 lung
  GI50: 5.17 µM
  TGI: > 100 µM
NCI-H522 lung
  GI50: 24.5 µM
  TGI: > 100 µM
NCI/ADR-RES ovarian
  GI50: > 100 µM
  TGI: > 100 µM
OVCAR-3 ovarian
  GI50: 8.86 µM
  TGI: > 100 µM
OVCAR-4 ovarian
  GI50: 1.34 µM
  TGI: > 100 µM
OVCAR-5 ovarian
  GI50: > 100 µM
  TGI: > 100 µM
OVCAR-8 ovarian
  GI50: 1.37 µM
  TGI: > 100 µM
PC-3 prostate
  GI50: 9.07 µM
  TGI: > 100 µM
RPMI-8226 leukemia
  GI50: 2.04 µM
  TGI: > 78.1 µM
RXF 393 renal
  GI50: 13.9 µM
  TGI: > 100 µM
SF-268 CNS
  GI50: 6.3 µM
  TGI: > 100 µM
SF-295 CNS
  GI50: 7.17 µM
  TGI: 78.2 µM
SF-539 CNS
  GI50: 6.77 µM
  TGI: > 100 µM
SK-MEL-2 melanoma
  GI50: 51.4 µM
  TGI: > 100 µM
SK-MEL-28 melanoma
  GI50: 25.9 µM
  TGI: > 100 µM
SK-MEL-5 melanoma
  GI50: 2.61 µM
  TGI: 11.5 µM
SK-OV-3 ovarian
  GI50: 50.2 µM
  TGI: > 100 µM
SN12C renal
  GI50: 40.3 µM
  TGI: > 100 µM
SNB-19 CNS
  GI50: 11.3 µM
  TGI: > 100 µM
SNB-75 CNS
  GI50: 14 µM
  TGI: > 100 µM
SR leukemia
  GI50: 1.78 µM
  TGI: > 100 µM
SW-620 colon
  GI50: 3.37 µM
  TGI: > 100 µM
T-47D breast
  GI50: 9.22 µM
  TGI: > 100 µM
TK-10 renal
  GI50: 17.4 µM
  TGI: > 100 µM
U251 CNS
  GI50: 7.94 µM
  TGI: > 100 µM
UACC-257 melanoma
  GI50: 8.81 µM
  TGI: > 100 µM
UACC-62 melanoma
  GI50: 37.2 µM
  TGI: > 100 µM
UO-31 renal
  GI50: 26.8 µM
  TGI: > 100 µM
